What all share (assay): relative viability (nuclei count vs DMSO), 5 days (fraction); higher = more cells survive
Compound in test [1]: C1=CC(=CC=C1NC(=S)NNC2=C(C=C(C=C2[N+](=O)[O-])C(F)(F)F)[N+](=O)[O-])F [Kobe2602] + CS(=O)(=O)N1CCN(Cc2cc3nc(-c4cccc5[nH]ncc45)nc(N4CCOCC4)c3s2)CC1 [Pictilisib] (partner 1 µM)
Put shortly: (§1)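 Lung cancer cell lines were seeded in 1536-well plates and dosed by pin tool the next day, with either a single drug or a fixed anchor-drug dose combined with five library-drug doses (not always all listed) spaced in √10 steps. Five days later, one step fixed the cells and stained their nuclei (final 0.05% Triton X-100, 1% formaldehyde, 1 ug/ml Hoechst), and nuclei were counted on 4× images. Relative viability is the nuclei count in treated wells divided by the count in vehicle wells, and each value is the median of duplicate plates.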

Compound in test [2]: O[C@@H](COc1cccc2ncccc12)CN1CCN([C@@H]2c3ccccc3[C@@H]3[C@H](c4ccccc42)C3(F)F)CC1 [Zosuquidar] + Nc1ncn([C@H]2C[C@H](O)[C@@H](CO)O2)c(=O)n1 [Decitabine] (partner 2 µM)
Put shortly:
as §1

Compound in test [3]: O[C@@H](COc1cccc2ncccc12)CN1CCN([C@@H]2c3ccccc3[C@@H]3[C@H](c4ccccc42)C3(F)F)CC1 [Zosuquidar] + CCNC(=O)c1noc(-c2cc(C(C)C)c(O)cc2O)c1-c1ccc(CN2CCOCC2)cc1 [Luminespib] (partner 0.01 µM)
In short, it runs like this:
as §1

Compound in test [4]: C1=CC(=CC=C1NC(=S)NNC2=C(C=C(C=C2[N+](=O)[O-])C(F)(F)F)[N+](=O)[O-])F [Kobe2602] + Nc1ncn([C@H]2C[C@H](O)[C@@H](CO)O2)c(=O)n1 [Decitabine] (partner 2 µM)
In short, it runs like this:
as §1

Take UMC-11: the relative viability is 0.865 in test [1] (first compound 0.2 µM); 0.863 in test [1] (first compound 0.6325 µM); 0.847 in test [1] (first compound 2 µM); 0.778 in test [1] (first compound 6.325 µM); 0.868 in test [1] (first compound 20 µM); 0.567 in test [2] (first compound 0.01 µM). The relative viability in test [2] (first compound 0.03162 µM) stood at 0.575; in test [2] (first compound 0.1 µM), 0.538; in test [2] (first compound 0.3162 µM), 0.666; in test [2] (first compound 1 µM), 0.59; in test [3] (first compound 0.01 µM) it was 0.97; in test [3] (first compound 0.03162 µM), 0.943. The relative viability in test [3] (first compound 0.1 µM) turned out to be 1.08; in test [3] (first compound 0.3162 µM), 1.1; in test [3] (first compound 1 µM) it was 1.18; in test [4] (first compound 0.2 µM), 0.564; in test [4] (first compound 0.6325 µM) it was 0.622; in test [4] (first compound 2 µM) it was 0.675. The figures for the relative viability in test [4] (first compound 6.325 µM) and in test [4] (first compound 20 µM) were 0.466 and 0.652, respectively.

(Values after the supplement of paper PMC10307832.)
